Among the data in ChEMBL document CHEMBL4334438, “Discovery of novel glycogen synthase kinase-3α inhibitors: Structure-based virtual screening, preliminary SAR and biological evaluation for treatment of acute myeloid leukemia” (Eur J Med Chem, 2019) are Activity values, retold here.

Each structure is given as a SMILES string.

Experiment [1] addresses Serine/threonine-protein kinase PLK3 (Homo sapiens) (UniProt Q9H4B4). Nature of the experiment: Inhibition of recombinant human Plk3 (19 to 301 residues) assessed as residual activity at 1 uM using casein as substrate measured after 40 mins in presence of [gamma33P]ATP by scintillation counting method relative to control.
Experiment [2] concerns the target Ephrin type-A receptor 3 (Homo sapiens) (UniProt P29320). The experiment can be described thus: Inhibition of recombinant human EphA3 (578 to end residues) assessed as residual activity at 1 uM using poly(Glu, Tyr) 4:1 as substrate at 40 mins in presence of [gamma-33ATP] by scintillation counting based radiometry assay relative to control.
Experiment [3] deals with Myosin light chain kinase, smooth muscle (Homo sapiens) (UniProt Q15746). Nature of the experiment: Inhibition of recombinant human MLCK (1425 to 1771 residues) assessed as residual activity at 1 uM […] incubated for 40 mins in presence of [gamma-33ATP by scintillation counting based radiometry assay relative to control.
The target in experiment [4] is Mitogen-activated protein kinase 12 (Homo sapiens) (UniProt P53778). Nature of the experiment: Inhibition of recombinant human full length SAPK3 assessed as residual activity at 1 uM using myelin basic protein as substrate measured after 40 mins in presence of [gamma33P]ATP by scintillation counting method relative to control.
For experiment [5], the target named is Serine/threonine-protein kinase D2 (Homo sapiens) (UniProt Q9BZL6). The experiment can be described thus: Inhibition of recombinant full-length human PKD2 assessed as residual activity at 1 uM using KKLNRTLSVA as substrate measured after 40 mins in presence of [gamma33P]ATP by scintillation counting method relative to control.
Experiment [6] addresses Serine/threonine-protein kinase ULK1 (Homo sapiens) (UniProt O75385). Nature of the experiment: Inhibition of human ULK1 (1 to 314 residues) assessed as residual activity at 1 uM using casein as substrate measured after 40 mins in presence of [gamma33P]ATP by scintillation counting method relative to control.
Experiment [7] has as its target Cyclin-dependent kinase 14/Cyclin-Y (Homo sapiens) (UniProt O94921+Q8ND76). The experiment can be described thus: Inhibition of recombinant full length human CDK14/cyclinY assessed as residual activity at 1 uM in presence of [gamma-33ATP] by scintillation counting based radiometry assay relative to control. The format is protein-complex assay.
Experiment [8] concerns Fibroblast growth factor receptor 1 (Homo sapiens), P11362 [V561M]. The experiment can be described thus: Inhibition of recombinant human FGFR1 V561M mutant (456 to 765 residues) assessed as residual activity at 1 uM using GGEEEEYFELVKKKK as substrate at 40 mins in presence of [gamma-33ATP] by scintillation counting based radiometry assay relative to control.
Experiment [9] addresses Macrophage colony-stimulating factor 1 receptor (Homo sapiens) (UniProt P07333). The experiment can be described thus: Inhibition of recombinant human FMS (538 to end residues) assessed as residual activity at 1 uM using EEEEYEEEEEEYYIIEEEEEEYEEEEEEYYEEEEEEKKKK as substrate at 40 mins in presence of [gamma-33ATP] by scintillation counting based radiometry assay relative to control.

Experiment [10] concerns the target Cyclin-dependent kinase 1/cyclin B1 (Homo sapiens) (UniProt P06493+P14635). The experiment can be described thus: Inhibition of recombinant full length human CDK1/CyclinB assessed as residual activity at 1 uM using Histone H1 as substrate incubated for 40 mins in presence of [gamma-33ATP] by scintillation counting based radiometry assay relative to control. Format: protein-complex assay.

Experiment [11] has as its target Dual specificity tyrosine-phosphorylation-regulated kinase 1A (Homo sapiens) (UniProt Q13627). The experiment can be described thus: Inhibition of recombinant human DYRK1A assessed as residual activity at 1 uM using RRRFRPASPLRGPPK as substrate at 40 mins in presence of [gamma-33ATP] by scintillation counting based radiometry assay relative to control.
Experiment [12] concerns eIF-2-alpha kinase GCN2 (Homo sapiens), Q9P2K8 [E556G]. The experiment can be described thus: Inhibition of recombinant full length human GCN2 E556G mutant assessed as residual activity at 1 uM using RSRSRSRSRSRSRSR as substrate at 40 mins in presence of [gamma-33ATP] by scintillation counting based radiometry assay relative to control.
Experiment [13] concerns Macrophage colony-stimulating factor 1 receptor (Homo sapiens), P07333 [Y969C]. The experiment can be described thus: Inhibition of recombinant human FMS Y969C mutant (538 to end residues) assessed as residual activity at 1 uM using EEEEYEEEEEEYYIIEEEEEEYEEEEEEYYEEEEEEKKKK as substrate at 40 mins in presence of [gamma-33ATP] by scintillation counting based radiometry assay relative to control.

Experiment [14] addresses Testis-specific serine/threonine-protein kinase 1 (Homo sapiens) (UniProt Q9BXA7). Nature of the experiment: Inhibition of recombinant full-length human TSSK1 at 1 uM assessed as residual activity at 1 uM using KKKVSRSGLYRSPSMPENLNRPR as substrate measured after 120 mins in presence of [gamma33P]ATP by scintillation counting method relative to control.
Experiment [15] has as its target Transcription initiation factor TFIID subunit 1-like (Homo sapiens) (UniProt Q8IZX4). Nature of the experiment: Inhibition of human TAF1L (1428 to end residues) assessed as residual activity at 1 uM using RRRFRPASPLRGPPK as substrate measured after 120 mins in presence of [gamma33P]ATP by scintillation counting method relative to control.
The next experiment is filed under the species Homo sapiens. Nature of the experiment: Inhibition of recombinant human EphB2 A848S/K918E mutant (560 to end residues) assessed as residual activity at 1 uM using poly(Glu, Tyr) 4:1 as substrate at 40 mins in presence of [gamma-33ATP] by scintillation counting based radiometry assay relative to control.
Experiment [16] has as its target Serine/threonine-protein kinase tousled-like 1 (Homo sapiens) (UniProt Q9UKI8). Nature of the experiment: Inhibition of recombinant full-length human TLK1 at 1 uM assessed as residual activity at 1 uM using casein as substrate measured after 40 mins in presence of [gamma33P]ATP by scintillation counting method relative to control.
Experiment [17] has as its target Serine/threonine-protein kinase 17A (Homo sapiens) (UniProt Q9UEE5). Nature of the experiment: Inhibition of recombinant human DRAK1 assessed as residual activity at 1 uM using KKLNRTLSFAEPG as substrate at 40 mins in presence of [gamma-33ATP] by scintillation counting based radiometry assay relative to control.
The target in experiment [18] is Serine/threonine-protein kinase/endoribonuclease IRE1 (Homo sapiens) (UniProt O75460). The experiment can be described thus: Inhibition of human IRE1 activated (465 to end residues) assessed as residual activity at 1 uM using myelin basic protein as substrate after 40 mins by [gamma-33ATP] radiometric assay relative to control.
The target in experiment [19] is Serine/threonine-protein kinase ULK3 (Homo sapiens) (UniProt Q6PHR2). Nature of the experiment: Inhibition of recombinant full-length human ULK3 at 1 uM assessed as residual activity at 1 uM using casein as substrate measured after 40 mins in presence of [gamma33P]ATP by scintillation counting method relative to control.
For experiment [20], the target named is Serine/threonine-protein kinase ULK2 (Homo sapiens) (UniProt Q8IYT8). Nature of the experiment: Inhibition of human ULK2 (1 to 306 residues) assessed as residual activity at 1 uM using casein as substrate measured after 40 mins in presence of [gamma33P]ATP by scintillation counting method relative to control.

Chain of Serine/threonine-protein kinase/endoribonuclease IRE1 (Homo sapiens) (O75460 19-977 limits assumed): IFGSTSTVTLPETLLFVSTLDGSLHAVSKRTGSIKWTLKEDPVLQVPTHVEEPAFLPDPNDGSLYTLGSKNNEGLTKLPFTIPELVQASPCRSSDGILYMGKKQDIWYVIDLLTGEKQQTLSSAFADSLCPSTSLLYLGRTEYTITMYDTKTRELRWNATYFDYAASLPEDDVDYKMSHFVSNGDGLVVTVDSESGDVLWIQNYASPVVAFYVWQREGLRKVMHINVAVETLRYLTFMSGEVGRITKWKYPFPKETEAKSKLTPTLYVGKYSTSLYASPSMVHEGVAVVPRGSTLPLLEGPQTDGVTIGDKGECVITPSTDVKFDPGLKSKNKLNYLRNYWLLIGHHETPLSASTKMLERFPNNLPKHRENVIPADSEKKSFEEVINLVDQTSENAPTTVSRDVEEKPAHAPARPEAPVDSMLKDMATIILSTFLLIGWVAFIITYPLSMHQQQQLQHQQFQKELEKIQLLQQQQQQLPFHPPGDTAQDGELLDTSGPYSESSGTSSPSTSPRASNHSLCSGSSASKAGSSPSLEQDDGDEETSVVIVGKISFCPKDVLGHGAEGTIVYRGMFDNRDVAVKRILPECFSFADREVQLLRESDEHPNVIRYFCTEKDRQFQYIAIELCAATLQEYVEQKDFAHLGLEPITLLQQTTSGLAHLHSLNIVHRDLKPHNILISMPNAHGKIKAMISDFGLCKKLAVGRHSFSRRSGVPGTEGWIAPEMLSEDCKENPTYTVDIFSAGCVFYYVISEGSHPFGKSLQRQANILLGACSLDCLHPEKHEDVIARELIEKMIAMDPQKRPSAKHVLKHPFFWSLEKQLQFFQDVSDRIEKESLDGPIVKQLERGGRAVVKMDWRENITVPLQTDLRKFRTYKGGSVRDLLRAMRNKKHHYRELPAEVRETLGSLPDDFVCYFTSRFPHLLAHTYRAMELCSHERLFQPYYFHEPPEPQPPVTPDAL
Chain of Serine/threonine-protein kinase 17A (Homo sapiens) (Q9UEE5 whole entry): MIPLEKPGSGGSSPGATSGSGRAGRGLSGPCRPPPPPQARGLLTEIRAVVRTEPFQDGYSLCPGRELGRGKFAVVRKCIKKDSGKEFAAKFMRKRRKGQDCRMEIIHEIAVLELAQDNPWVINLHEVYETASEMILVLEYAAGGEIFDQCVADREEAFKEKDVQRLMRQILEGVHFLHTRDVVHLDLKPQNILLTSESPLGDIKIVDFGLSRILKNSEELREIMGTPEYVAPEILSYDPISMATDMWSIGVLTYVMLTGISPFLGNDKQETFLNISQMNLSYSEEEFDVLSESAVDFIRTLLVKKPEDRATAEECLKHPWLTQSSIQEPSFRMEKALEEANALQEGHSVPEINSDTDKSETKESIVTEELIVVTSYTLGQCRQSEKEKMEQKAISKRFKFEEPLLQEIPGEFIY
Chain of Macrophage colony-stimulating factor 1 receptor (Homo sapiens), P07333 [Y969C] (P07333 whole entry Y969C): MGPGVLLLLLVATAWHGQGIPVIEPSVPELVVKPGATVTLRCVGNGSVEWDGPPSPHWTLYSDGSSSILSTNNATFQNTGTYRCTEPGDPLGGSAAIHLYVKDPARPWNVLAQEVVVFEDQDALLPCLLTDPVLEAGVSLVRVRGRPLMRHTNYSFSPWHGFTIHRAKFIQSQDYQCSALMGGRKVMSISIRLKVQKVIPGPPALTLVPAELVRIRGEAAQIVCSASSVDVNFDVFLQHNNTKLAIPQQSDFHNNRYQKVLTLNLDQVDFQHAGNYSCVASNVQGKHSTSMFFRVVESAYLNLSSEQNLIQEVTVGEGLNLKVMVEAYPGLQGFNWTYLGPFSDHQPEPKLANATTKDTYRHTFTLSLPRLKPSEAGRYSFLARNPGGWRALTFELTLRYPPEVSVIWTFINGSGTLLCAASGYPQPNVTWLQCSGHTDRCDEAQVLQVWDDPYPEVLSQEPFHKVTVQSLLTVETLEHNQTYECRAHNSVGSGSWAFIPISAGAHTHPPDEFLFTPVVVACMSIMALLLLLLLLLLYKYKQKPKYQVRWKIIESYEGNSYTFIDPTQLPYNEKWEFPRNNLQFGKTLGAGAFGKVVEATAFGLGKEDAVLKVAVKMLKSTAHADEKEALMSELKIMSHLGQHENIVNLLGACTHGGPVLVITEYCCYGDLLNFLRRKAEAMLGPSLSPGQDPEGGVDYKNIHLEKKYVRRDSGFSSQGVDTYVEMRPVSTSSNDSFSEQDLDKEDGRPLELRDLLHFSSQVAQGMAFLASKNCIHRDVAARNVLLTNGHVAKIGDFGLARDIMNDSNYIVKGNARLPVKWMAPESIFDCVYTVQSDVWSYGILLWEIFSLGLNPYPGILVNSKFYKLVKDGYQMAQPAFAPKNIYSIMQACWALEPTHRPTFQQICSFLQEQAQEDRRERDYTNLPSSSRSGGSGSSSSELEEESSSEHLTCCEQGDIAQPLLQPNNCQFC
Chain of Ephrin type-A receptor 3 (Homo sapiens) (P29320 whole entry, the tested form may be a part): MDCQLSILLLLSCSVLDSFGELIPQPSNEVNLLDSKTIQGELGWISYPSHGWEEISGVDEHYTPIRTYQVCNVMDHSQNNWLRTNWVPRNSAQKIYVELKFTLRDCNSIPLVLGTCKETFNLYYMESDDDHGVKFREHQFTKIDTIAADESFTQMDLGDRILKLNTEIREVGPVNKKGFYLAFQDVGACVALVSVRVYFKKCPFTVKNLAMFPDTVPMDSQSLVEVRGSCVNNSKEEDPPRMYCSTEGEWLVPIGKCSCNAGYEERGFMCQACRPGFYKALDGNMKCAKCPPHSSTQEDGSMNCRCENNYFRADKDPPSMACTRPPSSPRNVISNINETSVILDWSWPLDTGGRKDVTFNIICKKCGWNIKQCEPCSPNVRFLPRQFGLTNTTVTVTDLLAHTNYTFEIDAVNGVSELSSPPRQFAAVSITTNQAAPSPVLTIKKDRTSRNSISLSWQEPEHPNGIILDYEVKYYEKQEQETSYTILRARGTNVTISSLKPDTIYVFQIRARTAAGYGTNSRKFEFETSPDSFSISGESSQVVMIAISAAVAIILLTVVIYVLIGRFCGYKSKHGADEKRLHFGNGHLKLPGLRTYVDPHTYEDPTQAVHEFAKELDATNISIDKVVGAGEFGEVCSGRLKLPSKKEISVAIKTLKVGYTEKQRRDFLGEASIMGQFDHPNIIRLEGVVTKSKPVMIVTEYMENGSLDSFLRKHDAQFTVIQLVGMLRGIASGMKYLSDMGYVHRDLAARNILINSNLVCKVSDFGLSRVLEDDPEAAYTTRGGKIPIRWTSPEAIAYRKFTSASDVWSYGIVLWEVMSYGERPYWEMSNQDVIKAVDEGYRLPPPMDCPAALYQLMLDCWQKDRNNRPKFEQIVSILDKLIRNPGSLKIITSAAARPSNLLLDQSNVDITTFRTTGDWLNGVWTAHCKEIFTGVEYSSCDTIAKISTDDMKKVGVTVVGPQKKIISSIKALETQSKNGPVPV
Chain of Fibroblast growth factor receptor 1 (Homo sapiens), P11362 [V561M] (P11362 whole entry V561M, the tested form may be a part): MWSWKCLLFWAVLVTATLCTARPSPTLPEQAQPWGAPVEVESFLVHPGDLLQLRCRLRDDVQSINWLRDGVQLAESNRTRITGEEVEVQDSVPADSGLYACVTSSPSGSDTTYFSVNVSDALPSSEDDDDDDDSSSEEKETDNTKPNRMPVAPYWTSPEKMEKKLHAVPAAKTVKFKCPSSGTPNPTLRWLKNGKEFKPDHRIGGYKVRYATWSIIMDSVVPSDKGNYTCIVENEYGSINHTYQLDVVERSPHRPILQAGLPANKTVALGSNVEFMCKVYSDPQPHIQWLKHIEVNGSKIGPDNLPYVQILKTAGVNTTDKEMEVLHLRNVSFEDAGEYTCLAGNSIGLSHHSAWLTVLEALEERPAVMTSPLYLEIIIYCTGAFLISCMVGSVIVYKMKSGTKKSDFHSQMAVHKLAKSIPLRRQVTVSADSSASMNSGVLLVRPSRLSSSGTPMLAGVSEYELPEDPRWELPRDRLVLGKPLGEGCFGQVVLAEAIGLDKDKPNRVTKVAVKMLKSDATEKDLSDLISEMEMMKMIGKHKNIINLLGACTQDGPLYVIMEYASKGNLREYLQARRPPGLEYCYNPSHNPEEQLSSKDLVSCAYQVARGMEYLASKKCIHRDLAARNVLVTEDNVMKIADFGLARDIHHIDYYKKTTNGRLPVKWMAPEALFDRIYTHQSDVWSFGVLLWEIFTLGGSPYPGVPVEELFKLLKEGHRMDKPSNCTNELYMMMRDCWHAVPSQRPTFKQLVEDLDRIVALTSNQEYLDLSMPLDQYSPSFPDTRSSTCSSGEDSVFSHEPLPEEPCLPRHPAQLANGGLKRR
Chain of Serine/threonine-protein kinase ULK3 (Homo sapiens) (Q6PHR2 whole entry, the tested form may be a part): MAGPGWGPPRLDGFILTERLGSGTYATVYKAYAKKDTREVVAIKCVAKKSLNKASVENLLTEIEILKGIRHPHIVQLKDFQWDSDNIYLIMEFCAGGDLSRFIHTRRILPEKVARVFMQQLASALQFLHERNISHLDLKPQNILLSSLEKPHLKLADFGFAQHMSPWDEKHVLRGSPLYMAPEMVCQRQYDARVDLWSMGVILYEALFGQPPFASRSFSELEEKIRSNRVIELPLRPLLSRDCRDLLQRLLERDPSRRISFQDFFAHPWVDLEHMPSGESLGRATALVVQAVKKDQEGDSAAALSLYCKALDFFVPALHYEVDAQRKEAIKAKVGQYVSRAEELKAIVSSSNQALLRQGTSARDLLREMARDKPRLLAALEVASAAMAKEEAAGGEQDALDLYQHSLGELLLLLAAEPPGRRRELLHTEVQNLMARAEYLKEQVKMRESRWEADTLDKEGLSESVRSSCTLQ
Chain of Testis-specific serine/threonine-protein kinase 1 (Homo sapiens) (Q9BXA7 whole entry): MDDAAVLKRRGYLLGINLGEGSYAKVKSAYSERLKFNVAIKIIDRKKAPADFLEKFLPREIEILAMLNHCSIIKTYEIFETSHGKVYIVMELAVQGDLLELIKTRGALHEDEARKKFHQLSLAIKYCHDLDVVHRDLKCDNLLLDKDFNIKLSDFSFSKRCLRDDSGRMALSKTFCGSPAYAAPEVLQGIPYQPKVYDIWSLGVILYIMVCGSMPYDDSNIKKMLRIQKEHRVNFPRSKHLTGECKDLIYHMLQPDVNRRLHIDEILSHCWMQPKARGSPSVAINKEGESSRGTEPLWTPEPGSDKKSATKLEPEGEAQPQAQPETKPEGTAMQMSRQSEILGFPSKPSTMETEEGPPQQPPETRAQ

As to `N=C1NC(=O)/C(=C\c2ccc(-c3cccc([N+](=O)[O-])c3)o2)S1`, the Activity in experiment [1] was 108%; in experiment [2] it was 111%; in experiment [3], 37%; in experiment [4] it was 97%; in experiment [5], 103%; in experiment [6] it was 98%. Besides, the Activity in experiment [7] stood at 84%; in [8], 91%; in experiment [9], 106%; in experiment [10], 73%; in experiment [11] it was 25%; in experiment [12], 104%. The Activity was found to be 106% in experiment [13]; 91% in experiment [14]; 51% in [15]; 96% in the experiment filed under Homo sapiens; 110% in experiment [16]; 80% in [17]. Moreover, the figures for the Activity in [18], in experiment [19] and in experiment [20] were 79%, 100% and 102%, respectively.

On to `C=CCOC(=O)c1cc(-c2ccc(/C=C3/NC(=S)NC3=O)o2)ccc1Cl`, for which the Activity in experiment [1] came out at 98%; in experiment [2], 97%; in experiment [3], 89%; in experiment [4], 94%; in experiment [5] it was 99%; in experiment [6], 98%. Further, the Activity is 91% in experiment [7]; 102% in [8]; 117% in experiment [9]; 65% in [10]; 16% in experiment [11]; 106% in experiment [12]. Also, the Activity was 95% in experiment [13]; 97% in experiment [14]; 66% in [15]; 140% in the experiment filed under Homo sapiens; 101% in experiment [16]; 83% in experiment [17]. Moreover, the results for the Activity in experiment [18], in experiment [19] and in [20] were 91%, 99% and 103%, respectively.
